Measured values taken from PubChem BioAssay (NCI).
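Tested at 5 concentrations; 48 h exposure; 96-well plates; endpoints linearly interpolated, else capped at highest concentration. GI50: concentration for 50% inhibition of growth. At the TGI there is no net growth.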

What was measured:
Assay in all cases: DTP human tumour cell line panel, 48 h
[1] = tested on: 786-0 renal
[2] = tested on: A498 renal
[3] = tested on: A549 NSCLC
[4] = tested on: ACHN renal
[5] = tested on: BT-549 breast
[6] = tested on: CCRF-CEM leukemia
[7] = tested on: COLO 205 colon
[8] = tested on: DU-145 prostate
[9] = tested on: EKVX NSCLC
[10] = tested on: HCC-2998 colon
[11] = tested on: HCT-116 colon
[12] = tested on: HCT-15 colon
[13] = tested on: HL-60(TB) leukemia
[14] = tested on: HOP-62 NSCLC
[15] = tested on: HOP-92 NSCLC
[16] = tested on: HS 578T breast
[17] = tested on: HT29 colon
[18] = tested on: IGROV1 ovarian
[19] = tested on: K-562 leukemia
[20] = tested on: KM12 colon
[21] = tested on: M14 melanoma
[22] = tested on: MCF7 breast
[23] = tested on: MDA-MB-231 breast
[24] = tested on: MDA-MB-435
[25] = tested on: MOLT-4 leukemia
[26] = tested on: NCI-H226 lung
[27] = tested on: NCI-H23 lung
[28] = tested on: NCI-H460 lung
[29] = tested on: NCI-H522 lung
[30] = tested on: NCI/ADR-RES ovarian
[31] = tested on: OVCAR-3 ovarian
[32] = tested on: OVCAR-4 ovarian
[33] = tested on: OVCAR-5 ovarian
[34] = tested on: OVCAR-8 ovarian
[35] = tested on: PC-3 prostate
[36] = tested on: RPMI-8226 leukemia
[37] = tested on: RXF 393 renal
[38] = tested on: SF-268 CNS
[39] = tested on: SF-295 CNS
[40] = tested on: SF-539 CNS
[41] = tested on: SK-MEL-2 melanoma
[42] = tested on: SK-MEL-28 melanoma
[43] = tested on: SK-MEL-5 melanoma
[44] = tested on: SK-OV-3 ovarian
[45] = tested on: SN12C renal
[46] = tested on: SNB-19 CNS
[47] = tested on: SNB-75 CNS
[48] = tested on: SR leukemia
[49] = tested on: SW-620 colon
[50] = tested on: T-47D breast
[51] = tested on: TK-10 renal
[52] = tested on: U251 CNS
[53] = tested on: UACC-257 melanoma
[54] = tested on: UACC-62 melanoma
[55] = tested on: UO-31 renal
[56] = tested on: CAKI-1 renal
[57] = tested on: LOX IMVI melanoma
[58] = tested on: MALME-3M melanoma

O=C(NCCCCNCCCNC(=O)c1ccccc1)c1ccccc1
TGI [1]: > 100 µM | TGI [2]: > 100 µM | TGI [3]: > 100 µM | TGI [4]: > 100 µM | TGI [5]: > 100 µM | TGI [6]: > 100 µM | TGI [7]: > 100 µM | TGI [8]: > 100 µM | TGI [9]: > 100 µM | TGI [10]: > 100 µM | TGI [11]: > 100 µM | TGI [12]: > 100 µM | TGI [13]: > 100 µM | TGI [14]: > 100 µM | TGI [15]: > 100 µM | TGI [16]: > 100 µM | TGI [17]: > 100 µM | TGI [18]: > 100 µM | TGI [19]: > 100 µM | TGI [20]: > 100 µM | TGI [21]: > 100 µM | TGI [22]: > 100 µM | TGI [23]: > 100 µM | TGI [24]: > 100 µM | TGI [25]: > 100 µM | TGI [26]: > 100 µM | TGI [27]: > 100 µM | TGI [28]: > 100 µM | TGI [29]: > 100 µM | TGI [30]: > 100 µM | TGI [31]: > 100 µM | TGI [32]: > 100 µM | TGI [33]: > 100 µM | TGI [34]: > 100 µM | TGI [35]: > 100 µM | TGI [36]: > 100 µM | TGI [37]: > 100 µM | TGI [38]: > 100 µM | TGI [39]: > 100 µM | TGI [40]: > 100 µM | TGI [41]: > 100 µM | TGI [42]: > 100 µM | TGI [43]: > 100 µM | TGI [44]: > 100 µM | TGI [45]: > 100 µM | TGI [46]: > 100 µM | TGI [47]: > 100 µM | TGI [48]: > 100 µM | TGI [49]: > 100 µM | TGI [50]: > 100 µM | TGI [51]: > 100 µM | TGI [52]: > 100 µM | TGI [53]: > 100 µM | TGI [54]: > 100 µM | TGI [55]: > 100 µM

Cn1c(=O)c(Oc2cccc(F)c2)cc2cnc(NC3CCOCC3)nc21
GI50 [1]: > 25 µM | TGI [1]: > 25 µM | GI50 [2]: 8.11 µM | TGI [2]: > 25 µM | GI50 [3]: > 25 µM | TGI [3]: > 25 µM | GI50 [4]: > 25 µM | TGI [4]: > 25 µM | GI50 [5]: > 25 µM | TGI [5]: > 25 µM | GI50 [56]: > 22.4 µM | TGI [56]: > 25 µM | GI50 [7]: > 25 µM | TGI [7]: > 25 µM | GI50 [8]: > 25 µM | TGI [8]: > 25 µM | GI50 [10]: > 25 µM | TGI [10]: > 25 µM | GI50 [11]: > 25 µM | TGI [11]: > 25 µM | GI50 [12]: > 25 µM | TGI [12]: > 25 µM | GI50 [13]: > 25 µM | TGI [13]: > 25 µM | GI50 [14]: > 25 µM | TGI [14]: > 25 µM | GI50 [15]: 4.47 µM | TGI [15]: 24.5 µM | GI50 [16]: > 25 µM | TGI [16]: > 25 µM | GI50 [17]: > 25 µM | TGI [17]: > 25 µM | GI50 [18]: 24.8 µM | TGI [18]: > 25 µM | GI50 [19]: > 25 µM | TGI [19]: > 25 µM | GI50 [20]: > 25 µM | TGI [20]: > 25 µM | GI50 [57]: > 25 µM | TGI [57]: > 25 µM | GI50 [21]: > 25 µM | TGI [21]: > 25 µM | GI50 [58]: > 25 µM | TGI [58]: > 25 µM | GI50 [22]: > 25 µM | TGI [22]: > 25 µM | GI50 [23]: > 25 µM | TGI [23]: > 25 µM | GI50 [24]: > 25 µM | TGI [24]: > 25 µM | GI50 [26]: > 25 µM | TGI [26]: > 25 µM | GI50 [27]: > 25 µM | TGI [27]: > 25 µM | GI50 [28]: > 25 µM | TGI [28]: > 25 µM | GI50 [29]: > 25 µM | TGI [29]: > 25 µM | GI50 [30]: > 25 µM | TGI [30]: > 25 µM | GI50 [31]: > 25 µM | TGI [31]: > 25 µM | GI50 [32]: > 22.6 µM | TGI [32]: > 25 µM | GI50 [33]: > 25 µM | TGI [33]: > 25 µM | GI50 [34]: > 25 µM | TGI [34]: > 25 µM | GI50 [35]: > 25 µM | TGI [35]: > 25 µM | GI50 [36]: > 25 µM | TGI [36]: > 25 µM | GI50 [37]: > 25 µM | TGI [37]: > 25 µM | GI50 [38]: > 25 µM | TGI [38]: > 25 µM | GI50 [39]: > 25 µM | TGI [39]: > 25 µM | GI50 [40]: > 25 µM | TGI [40]: > 25 µM | GI50 [41]: > 25 µM | TGI [41]: > 25 µM | GI50 [42]: > 25 µM | TGI [42]: > 25 µM | GI50 [43]: > 25 µM | TGI [43]: > 25 µM | GI50 [44]: > 25 µM | TGI [44]: > 25 µM | GI50 [45]: > 25 µM | TGI [45]: > 25 µM | GI50 [46]: > 25 µM | TGI [46]: > 25 µM | GI50 [47]: > 6.38 µM | TGI [47]: > 25 µM | GI50 [48]: > 25 µM | TGI [48]: > 25 µM | GI50 [49]: > 25 µM | TGI [49]: > 25 µM | GI50 [50]: > 25 µM | TGI [50]: > 25 µM | GI50 [51]: > 22 µM | TGI [51]: > 25 µM | GI50 [52]: > 25 µM | TGI [52]: > 25 µM | GI50 [53]: > 25 µM | TGI [53]: > 25 µM | GI50 [54]: > 25 µM | TGI [54]: > 25 µM | GI50 [55]: > 8.3 µM | TGI [55]: > 13 µM
